≈ marks a conversion by molar mass, not a printed value.
Key:
Test in all cases: Bacterial growth minimal inhibitory concentration, microdilution in cation-adjusted Mueller-Hinton Broth (CLSI M7-A7)
Format in all cases: cell-based
E. coli ATCC25922 = conditions: Escherichia coli, ATCC25922; quinolone-sensitive strain; read-out: MIC for E. coli ATCC25922
Method: (§1) Minimal Inhibitory Concentrations (MICs; mg/L) were determined in cation-adjusted Mueller-Hinton Broth by a microdilution method following the description given in “Methods for Dilution Antimicrobial Susceptibility Tests for Bacteria that Grow Aerobically”, Approved standard, 7th ed., Clinical and Laboratory Standards Institute (CLSI) Document M7-A7, Wayne, Pa., USA (2006).
(§2) All Example compounds were tested against several Gram-positive and Gram-negative bacteria. […] K pneumoniae A-651 is a multiply-resistant (in particular quinolone-resistant) strain, while E. coli ATCC25922 and P. aeruginosa ATCC27853 are quinolone-sensitive strains.

P. aeruginosa ATCC27853 = conditions: Pseudomonas aeruginosa, ATCC27853; quinolone-sensitive strain; read-out: MIC for P. aeruginosa ATCC27853
Method: as §1, §2

K. Pneumoniae A-651 = conditions: Klebsiella pneumoniae; multiply-resistant (in particular quinolone-resistant) strain; read-out: MIC for K. Pneumoniae A-651
Method: as §1, §2

SMILES	MIC (E. coli ATCC25922)	MIC (P. aeruginosa ATCC27853)	MIC (K. Pneumoniae A-651)
C[C@@](CCc1nc2ccc(C#CC#CC3(O)CCOCC3)cc2s1)(C(=O)NO)S(C)(=O)=O [Example 18, (R)-N-hydroxy-4-(6-((4-hydroxytetrahydro-2H-pyran-4-yl)buta-1,3-diyn-1-yl)benzo[d]thiazol-2-yl)-2-methyl-2-(methylsulfonyl)butanamide]	1 µg/mL (≈ 2.1 µM)	2 µg/mL (≈ 4.2 µM)	2 µg/mL (≈ 4.2 µM)
C[C@@](CCc1nc2ccc(C#CC#CC3CCNCC3)cc2s1)(C(=O)NO)S(C)(=O)=O [Example 19, (R)-N-hydroxy-2-methyl-2-(methylsulfonyl)-4-(6-(piperidin-4-ylbuta-1,3-diyn-1-yl)benzo[d]thiazol-2-yl)butanamide]	8 µg/mL (≈ 17.4 µM)	4 µg/mL (≈ 8.7 µM)	16 µg/mL (≈ 34.8 µM)
C[C@@](CCc1nc2ccc(C#CC#CC3(CO)COC3)cc2s1)(C(=O)NO)S(C)(=O)=O [Example 20, (R)-N-hydroxy-4-(6-((3-(hydroxymethyl)oxetan-3-yl)buta-1,3-diyn-1-yl)benzo[d]thiazol-2-yl)-2-methyl-2-(methylsulfonyl)butanamide]	0.5 µg/mL (≈ 1.08 µM)	1 µg/mL (≈ 2.16 µM)	0.5 µg/mL (≈ 1.08 µM)
C[C@@](CCc1nc2ccc(C#CC#CC3CCN(C(=O)CO)CC3)cc2s1)(C(=O)NO)S(C)(=O)=O [Example 22, (R)-N-hydroxy-4-(6-((1-(2-hydroxyacetyl)piperidin-4-yl)buta-1,3-diyn-1-yl)benzo[d]thiazol-2-yl)-2-methyl-2-(methylsulfonyl)butanamide]	0.5 µg/mL (≈ 0.966 µM)	2 µg/mL (≈ 3.86 µM)	1 µg/mL (≈ 1.93 µM)
C[C@@](CCc1nc2ccc(C#CC#CC3CN(C(=O)CO)C3)cc2s1)(C(=O)NO)S(C)(=O)=O [Example 25, (R)-N-hydroxy-4-(6-((1-(2-hydroxyacetyl)azetidin-3-yl)buta-1,3-diyn-1-yl)benzo[d]thiazol-2-yl)-2-methyl-2-(methylsulfonyl)butanamide]	0.5 µg/mL (≈ 1.02 µM)	1 µg/mL (≈ 2.04 µM)	1 µg/mL (≈ 2.04 µM)
C[C@]1(CO)C[C@@H]1C#CC#Cc1ccc2nc(CC[C@](C)(C(=O)NO)S(C)(=O)=O)sc2c1 [Example 26, (R)-N-hydroxy-4-(6-(((1R,2S)-2-(hydroxymethyl)-2-methylcyclopropyl)buta-1,3-diyn-1-yl)benzo[d]thiazol-2-yl)-2-methyl-2-(methylsulfonyl)butanamide]	0.063 µg/mL (≈ 0.137 µM)	0.5 µg/mL (≈ 1.09 µM)	0.125 µg/mL (≈ 0.271 µM)
C[C@@](CCc1nc2ccc(C#CC#C[C@H]3C[C@]3(F)CO)cc2s1)(C(=O)NO)S(C)(=O)=O [Example 27, (R)-4-(6-(((1R,2R)-2-fluoro-2-(hydroxymethyl)cyclopropyl)buta-1,3-diyn-1-yl)benzo[d]thiazol-2-yl)-N-hydroxy-2-methyl-2-(methylsulfonyl)butanamide]	0.063 µg/mL (≈ 0.136 µM)	0.25 µg/mL (≈ 0.538 µM)	0.125 µg/mL (≈ 0.269 µM)
